Results taken from patent publication US10238616B2, “Immunomodulator” (WAKUNAGA PHARMACEUTICAL CO., LTD., priority 2014, dated 2019).

Experiments:
[1] = test system: IgA production; assay: Promoting effect of IgA production (in vitro) <2>; assay type: cell-based, mouse; details: spleen lymphocytes of female C57BL/6N mice, 0.03, 0.1 and 0.3 mM, three days at 37° C.
Method: (§1) Cells for the biological activity evaluation were prepared as follows. Female C57BL/6N mice for tests were purchased from CLEA Japan, Inc. After the purchase, the mice were acclimated for a week, and then sacrificed and the spleens were taken out. The excised spleens were crushed and passed through a mesh to collect lymphocytes, which were used as the cells for the evaluation test.
(§2) Mouse IgA Quantitation Kit manufactured by Bethyl laboratories, Inc was purchased and the amount of IgA produced was measured. The wash solution or culture supernatant to be measured was placed in a 96-well plate coated with an anti-IgA antibody. After adding various reaction reagents, the absorbance was measured by using a plate reader.
The lymphocytes obtained from the cells for the evaluation test of (2) above were prepared at 5×10^6 cells/mL with a 10% serum-containing medium and inoculated into a 48-well plate at 200 μL each.
To the cells, chemically synthesized cis-S-1-propenycysteine and trans-S-1-propenycysteine, and S-1-propenycysteine (a cis/trans mixture) prepared in Production Example 2 were added at concentrations of 0.03, 0.1, and 0.3 mM, followed by culturing at 37° C. for three days. Subsequently, the amount of IgA produced in the culture supernatants was measured by ELISA.

[2] = test system: IL-6 production; assay: Inhibitory effect on IL-6 production under LPS stimulation (in vitro) <2>; assay type: cell-based, mouse; details: spleen lymphocytes, 3 μg/mL Salmonella-derived LPS, 0.3 mM, 24 hours at 37° C.
Method: as §1
(§3) Mouse IL-6 ELISA Ready-SET-Go! Kit manufactured by eBioscience was purchased and the amount of IL-6 produced was measured. The culture supernatant to be measured was placed in a 96-well plate coated with an anti-IL-6 antibody. After adding various reaction reagents, the absorbance was measured by using a plate reader.
The lymphocytes obtained from the cells for the evaluation test of (2) above were prepared at 5×10^6 cells/mL with a 10% serum-containing medium and inoculated into a 48-well plate at 200 μL each. To these cells, chemically synthesized cis-S-1-propenycysteine and trans-S-1-propenycysteine, SAC, and S-1-propenycysteine (a cis/trans mixture) prepared in Production Example 2 were added at a concentration of 0.3 mM in the presence of 3 μg/mL Salmonella-derived lipopolysaccharides (LPS), followed by culturing at 37° C. for 24 hours. Upon completion of culture, the supernatants were collected and the amount of IL-6 was measured by ELISA.

[3] = test system: IgA production; assay: Promoting effect of IgA production (in vitro) <1>; assay type: cell-based, mouse; details: spleen lymphocytes of female C57BL/6N mice, 0.1 mM, three days at 37° C., compared with other sulfur-containing amino acid compounds
Method: as §1, §2
The lymphocytes obtained from the cells for the evaluation test of (2) above were prepared at 1×10^6 cells/mL with a 10% serum-containing medium and inoculated into a 24-well plate at 1 mL each, or prepared at 1×10^6 cells/200 μL and inoculated into a 48-well plate at 200 μL each. Subsequently, of the samples prepared in (1) above, those prepared in (1) (a) above were appropriately diluted and added to the 24-well plate so that the final concentration was 4 mg/mL, and those prepared in (1) (b) was added to the 48-well plate at 0.1 mM. After culturing for three days at 37° C., the supernatants were collected and the amount of IgA was measured by ELISA.

[4] = test system: IgA production; assay: Promoting effect on IgA production under LPS stimulation (in vitro) <1>; assay type: cell-based, mouse; details: spleen lymphocytes, 1 μg/mL Escherichia coli 055-derived LPS, 0.1 mM, compared with no stimulation
Method: as §1, §2
(§4) The lymphocytes obtained from the cells for the evaluation test of (2) above were prepared at 1×10^6 cells/mL with a 10% serum-containing medium and inoculated into a 24-well plate at 1 mL each. Subsequently, Escherichia coli 055-derived lipopolysaccharides (LPS) were added at 1 μg/mL, and then the samples prepared in (1) (b) above were added at 0.1 mM, followed by culturing at 37° C. for 24 hours or three days. Upon completion of culture, the supernatants were collected and the amounts of IL-6 and IgA were measured by ELISA.

[5] = test system: IL-6 production; assay: Inhibitory effect on IL-6 production under LPS stimulation (in vitro) <1>; assay type: cell-based, mouse; details: spleen lymphocytes, 1 μg/mL Escherichia coli 055-derived LPS, 0.1 mM
Method: as §1, §3, §4

[6] = test system: IgA; assay: Promoting effect of IgA production (in vivo) <1>: IgA in intestinal lavage fluids; design: species or system mouse; details: female C57BL/6N mice, oral administration for five days, compared with water administration group
Method: (§5) Animals for the biological activity evaluation were reared as follows. Female C57BL/6N mice for tests were purchased from CLEA Japan, Inc. After the purchase, the mice were acclimated for a week, and then used as the animals for the evaluation test.
as §2
The animals for the evaluation test of (3) above were orally administered with the sample prepared in (1) (b) above for five days, and then sacrificed and the small intestines were removed. Phosphate buffer (5 mL) was passed through the small intestines and the contents of the small intestines and the lavage fluids collected. The collected products were combined and centrifuged, and the amount of IgA in the resulting supernatant was quantified by ELISA.

[7] = test system: IgA-producing B cells; assay: Promoting effect of IgA production (in vivo) <2>: IgA-producing B cells in Peyer's patches; design: species or system mouse; details: female C57BL/6N mice, oral administration for five days, compared with water administration group
Source text: as §5
The animals for the evaluation test of (3) above were orally administered with the sample prepared in (1) (b) above for five days, and then sacrificed. The small intestines were removed, from which Peyer's patches were collected. The Peyer's patches were ground, to which Collagenase D was added to give a final concentration of 1 mg/mL and DNAase I was added to give a final concentration of 20 μg/mL. Treatment was continued for 30 minutes while shaking at 37° C., followed by centrifugation at 1,500 rpm. The resulting supernatant was removed. Then, 2 mL of 5% FBS-containing Hank's Balanced Salt Solution containing 5 mM EDTA was added, followed by treatment for five minutes while shaking at 37° C. Upon completion of treatment, the resultant was passed through a 40 μm mesh to remove tissue pieces and collect lymphocytes. […] Upon completion of treatment, 1×10^4 lymphocytes were analyzed by using a flow cytometer to count the number of IgA-producing B cells which reacted to the anti-mouse CD45 antibody (B220) and the anti-mouse immunoglobulin A antibody.

[8] = test system: IgA-producing B cells; assay: Promoting effect of IgA production (in vivo) <3>: IgA-producing B cells in the peritoneal cavity; design: species or system mouse; details: female C57BL/6N mice, oral administration for five days, compared with water administration group
Method: as §5
The animals for the evaluation test of (3) above were orally administered with the sample prepared in (1) (b) above for five days. The animals were sacrificed and a laparotomy was performed without breaking the peritoneum. Then, 3 mL of 5% FBS-containing Hank's Balanced Salt Solution was placed in a 5 mL syringe and injected into the peritoneal cavity using a 27G needle. Then, the peritoneum was pressed with fingers to spread the injected solution evenly throughout the peritoneal cavity, followed by collecting the intraperitoneal solution using a 18G needle. The intraperitoneal solution thus collected was centrifuged at 1,500 rpm for five minutes. The resulting supernatant was removed and peritoneal cells were collected. […] Upon completion of treatment, 1×10^4 lymphocytes were analyzed by using a flow cytometer to count the number of IgA-producing B cells which reacted to the anti-mouse CD45 antibody (B220) and the anti-mouse immunoglobulin A antibody.

Structure (SMILES) | amount of IgA produced in culture supernatants (ELISA), FIG. 8 [1] | IL-6 secretion induced by LPS stimulation (ELISA), FIG. 9 [2] | amount of IgA in culture supernatant (ELISA), FIG. 2 [3] | amount of IgA under LPS stimulation (ELISA), FIG. 6 [4] | amount of IL-6 secretion induced by LPS stimulation (ELISA), FIG. 7 [5] | amount of IgA in the intestinal lavage fluids (ELISA), FIG. 3 [6] | number of IgA-producing B cells in Peyer's patches (flow cytometer), FIG. 4 [7] | number of IgA-producing B cells in the peritoneal cavity (flow cytometer), FIG. 5 [8]
C/C=C/SC[C@H](N)C(=O)O [trans isomer, trans-S-1-Propenylcysteine] | significantly enhanced IgA production | significantly inhibited IL-6 secretion | – | – | – | – | – | –
CC=CSCC(N)C(=O)O (centres unmarked) [S-1-propenycysteine, S-1-propenylcysteine] | significantly enhanced IgA production | significantly inhibited IL-6 secretion | promoted IgA production more strongly than other sulfur-containing amino acid compounds | higher promoting effect on IgA production than under no stimulation | reduced | increased | increased | increased
C/C=C\SC[C@H](N)C(=O)O [cis-S-1-propenycysteine, cis-S-1-Propenylcysteine] | virtually did not affect IgA production | – | – | – | – | – | – | –
